Reference: article PMC4774911, “Biochemical Screening of Five Protein Kinases from Plasmodium falciparum against 14,000 Cell-Active Compounds” (PLoS ONE, 2016)
Read-outs that look alike come from different tables or passages of the source.

Legend:
[1] = target: T1, Plasmodium falciparum calcium-dependent protein kinase 1 (CDPK1) (Plasmodium falciparum, UniProt P62344); assay: CDPK1 Kinase-Glo ATP-consumption screen and dose-response; format: biochemical; settings: hits below 1 uM; read-out: CDPK1 IC50
T1 construct: 6-Histidine (N); made in house
T1 sequence (P62344 whole entry): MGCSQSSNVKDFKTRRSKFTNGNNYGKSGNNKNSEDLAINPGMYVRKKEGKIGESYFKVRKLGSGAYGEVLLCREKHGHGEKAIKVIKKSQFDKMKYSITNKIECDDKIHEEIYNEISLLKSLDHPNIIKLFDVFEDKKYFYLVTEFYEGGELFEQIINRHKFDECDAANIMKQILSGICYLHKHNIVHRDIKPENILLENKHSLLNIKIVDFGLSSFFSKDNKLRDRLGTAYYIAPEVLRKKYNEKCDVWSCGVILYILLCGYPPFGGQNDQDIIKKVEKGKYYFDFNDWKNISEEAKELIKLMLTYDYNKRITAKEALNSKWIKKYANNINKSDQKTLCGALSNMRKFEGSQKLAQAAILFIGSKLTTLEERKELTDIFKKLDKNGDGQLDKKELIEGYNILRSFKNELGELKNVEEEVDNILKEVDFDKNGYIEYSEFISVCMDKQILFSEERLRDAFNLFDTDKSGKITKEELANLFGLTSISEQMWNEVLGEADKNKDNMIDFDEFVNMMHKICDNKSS
Method in brief: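 Single-point testing used 1 μM final compound, then dose-response, against CDPK4 and CDPK1 with Syntide-2 (40 μM) as substrate. After 90 min, reactions were halted by 5 mM EGTA, and kinase activity was inferred from depleted ATP via Kinase-Glo luminescence.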

P. falciparum 3D7 cells = settings: cited from earlier work
3D7 PFLDH [2] = tested on: 3D7 PFLDH; design: method as in F.J. Gamo et al., Nature 2010; concentration or dose not given beside the values; settings: downloaded from ChEMBL, ref F.J. Gamo et al., Nature 2010; cited from earlier work
PKG = PKG (Plasmodium falciparum, UniProt Q8I719); assay: PKG IC50 (supplementary data file); format: biochemical
Sequence of PKG (Q8I719 whole entry): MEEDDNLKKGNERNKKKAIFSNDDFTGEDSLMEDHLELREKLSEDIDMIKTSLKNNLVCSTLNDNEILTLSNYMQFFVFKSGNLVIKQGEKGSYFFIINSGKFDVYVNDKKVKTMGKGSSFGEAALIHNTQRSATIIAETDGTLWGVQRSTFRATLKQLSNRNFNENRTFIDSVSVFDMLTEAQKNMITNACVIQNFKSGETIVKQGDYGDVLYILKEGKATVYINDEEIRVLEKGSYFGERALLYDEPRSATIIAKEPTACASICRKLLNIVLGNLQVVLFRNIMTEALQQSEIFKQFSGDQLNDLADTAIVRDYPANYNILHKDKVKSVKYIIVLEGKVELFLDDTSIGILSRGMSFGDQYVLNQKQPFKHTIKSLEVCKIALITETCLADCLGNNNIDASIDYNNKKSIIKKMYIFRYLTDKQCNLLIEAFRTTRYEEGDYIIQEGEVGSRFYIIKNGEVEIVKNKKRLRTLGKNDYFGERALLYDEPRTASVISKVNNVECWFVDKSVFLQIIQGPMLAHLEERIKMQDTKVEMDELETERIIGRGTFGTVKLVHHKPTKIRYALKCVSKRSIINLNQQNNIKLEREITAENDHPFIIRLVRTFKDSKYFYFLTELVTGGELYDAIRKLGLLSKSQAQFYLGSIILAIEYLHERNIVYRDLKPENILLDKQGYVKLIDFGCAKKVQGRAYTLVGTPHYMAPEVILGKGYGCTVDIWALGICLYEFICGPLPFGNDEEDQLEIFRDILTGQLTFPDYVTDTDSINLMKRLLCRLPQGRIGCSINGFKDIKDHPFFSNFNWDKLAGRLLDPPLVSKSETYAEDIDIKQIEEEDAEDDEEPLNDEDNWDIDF
Description: Supplement pone.0149996.s003.xls, sheet "combined_1_sorted"

[3] = target: T2, Plasmodium falciparum protein kinase 6 (PK6) (Plasmodium falciparum, UniProt Q8IDW1); assay: biochemical; settings: hits below 1 uM; read-out: PK6 IC50
T2 construct: 6-Histidine (N); made in house
T2 sequence (Q8IDW1 1-305): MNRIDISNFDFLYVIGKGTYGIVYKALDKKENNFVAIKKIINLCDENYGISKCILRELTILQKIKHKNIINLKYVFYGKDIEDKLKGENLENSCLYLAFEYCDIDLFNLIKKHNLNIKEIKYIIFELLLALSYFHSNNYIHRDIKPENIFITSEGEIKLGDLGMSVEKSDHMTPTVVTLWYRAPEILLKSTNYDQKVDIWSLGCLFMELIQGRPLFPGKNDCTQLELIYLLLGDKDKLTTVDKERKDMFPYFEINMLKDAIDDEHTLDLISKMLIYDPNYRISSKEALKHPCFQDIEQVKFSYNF

DD2 [4] = tested on: DD2; design: method as in F.J. Gamo et al., Nature 2010; settings: downloaded from ChEMBL, ref F.J. Gamo et al., Nature 2010; cited from earlier work
HepG2 cells = settings: cited from earlier work
[5] = target: T3, Plasmodium falciparum calcium-dependent protein kinase 4 (CDPK4) (Plasmodium falciparum, UniProt Q8IBS5); assay: CDPK4 Kinase-Glo ATP-consumption screen and dose-response; format: biochemical; settings: hits below 1 uM
T3 construct: 6-Histidine (N); made in house
T3 sequence (Q8IBS5 1-528): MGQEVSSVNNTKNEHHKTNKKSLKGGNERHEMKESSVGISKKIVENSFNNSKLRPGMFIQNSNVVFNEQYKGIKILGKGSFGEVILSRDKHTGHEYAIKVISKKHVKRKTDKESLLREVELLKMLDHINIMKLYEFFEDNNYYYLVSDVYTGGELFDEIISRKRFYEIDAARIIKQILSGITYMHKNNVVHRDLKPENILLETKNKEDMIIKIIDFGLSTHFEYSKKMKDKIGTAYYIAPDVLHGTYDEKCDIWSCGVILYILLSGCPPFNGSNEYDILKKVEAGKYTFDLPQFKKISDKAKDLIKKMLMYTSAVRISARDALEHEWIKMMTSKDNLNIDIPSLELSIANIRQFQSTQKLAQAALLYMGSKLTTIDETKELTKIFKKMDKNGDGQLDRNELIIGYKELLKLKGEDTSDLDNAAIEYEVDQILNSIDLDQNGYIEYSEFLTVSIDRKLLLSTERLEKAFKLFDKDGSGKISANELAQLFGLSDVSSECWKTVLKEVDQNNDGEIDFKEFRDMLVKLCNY
Protocol: Biochemical assays were performed in white 384-well plates (Nunc). Liquid transfers were done manually with 8-channel pipets. Compounds were initially tested in a single-point screen (final concentration 1 μM). […] The catalytic activity of each kinase was considered proportional to ATP consumed, as determined from measurements of residual [ATP] with the luciferase-based reagent Kinase-Glo (Promega) following incubation. Luminescence (proportional to residual [ATP]) was measured on the plate readers FLx800 (BioTek Instruments, Winooski, VT, USA) and MicroBeta^2 (PerkinElmer, Waltham, MA, USA). Incubation times were chosen to ensure near-complete ATP depletion in the absence of inhibition, thus maximizing the difference in signal between inhibited and uninhibited wells.
40 μM Syntide-2 was used as a substrate; BKI-1 [14] was used as a control inhibitor, while reaction mixtures lacking Syntide-2 were included as an additional negative control. Incubation time was 90 minutes. Reactions were terminated by adding excess EGTA (5 mM), which sequesters Ca^2+ and halts calcium-dependent kinase activity.

DD2 [6] = tested on: DD2; design: method as in downloaded from ChEMBL; settings: ref downloaded from ChEMBL; cited from earlier work
3D7 PFLDH [7] = tested on: 3D7 PFLDH; design: method as in downloaded from ChEMBL; settings: ref downloaded from ChEMBL; cited from earlier work
P. falciparum DD2 = tested on: P. falciparum DD2; design: method as in ChEMBL; settings: ref ChEMBL; cited from earlier work
3D7 PFLDH [8] = tested on: 3D7 PFLDH; design: method as in ChEMBL; settings: ref ChEMBL; cited from earlier work
[9] = 3D7, downloaded from ChEMBL, ref F.J. Gamo et al., Nature 2010
[10] = HepG2, downloaded from ChEMBL, ref F.J. Gamo et al., Nature 2010
[11] = 3D7, ref downloaded from ChEMBL
[12] = HEPG2, ref downloaded from ChEMBL

IC50 [1] [µM] | IC50 (PKG) [µM] | IC50 [3] [µM] | IC50 [5] [µM] | SMILES | PCT_IHB_3D7 (P. falciparum 3D7 cells; [9]) [%] | pXC50_3D7 (P. falciparum 3D7 cells; [9]) | PCT_INHIB_3D7_PFLDH (3D7 PFLDH [2]) [%] | PCT_INHB_DD2 (DD2 [4]) [%] | PCT_INHIB_HEPG2 (HepG2 cells; [10]) [%] | PCT_INHB_DD2 (DD2 [6]) | PCT_IHB_3D7 (P. falciparum 3D7 cells; [11]) | pXC50_3D7 (P. falciparum 3D7 cells; [11]) | PCT_INHIB_3D7_PFLDH (3D7 PFLDH [7]) | PCT_INHIB_HEPG2 (HepG2 cells; [12]) | PCT_IHB_3D7 (P. falciparum 3D7 cells; P. falciparum 3D7, ref ChEMBL) | pXC50_3D7 (P. falciparum 3D7 cells; P. falciparum 3D7, ref ChEMBL) | PCT_INHB_DD2 (P. falciparum DD2) | PCT_INHIB_3D7_PFLDH (3D7 PFLDH [8]) | PCT_INHIB_HEPG2 (HepG2 cells; HepG2 cells, ref ChEMBL)
0.047 | 0.881 | 0.07 | 0.361 | CNC(=O)c1ccccc1Nc1nc(Nc2ccc(CCN3CCN(C)CC3)cc2)ncc1Cl.Cl [TCMDC-133800] | 97 | 6.1864 | 5 | 98 | 76 |  |  |  |  |  |  |  |  |  | 
0.492 | 1.02 |  | 0.527 | Cl.NC[C@H](CC1CCCCC1)NC(=O)c1ccc(-c2ccnc3[nH]ccc23)s1 [TCMDC-134150] |  |  |  |  |  | 4 | 98 | 6.022 | 5 | 39 |  |  |  |  | 
0.029 | 0.43 |  | 0.473 | NCC(NC(=O)c1ccc(-c2c[nH]c3ncccc23)s1)c1ccccc1.O=CO (centres unmarked) [TCMDC-134154] |  |  |  |  |  | 87 | 95 | 6.262 | 0 | 52 |  |  |  |  | 
0.271 |  |  |  | CN(C(=O)c1cc2c(-c3cncnc3)cccc2[nH]1)c1ccccc1 [TCMDC-134637] |  |  |  |  |  |  |  |  |  |  | 92 | 6.202 | 99 | 0 | 1
0.02 | > 10 | 0.276 | 0.052 | CS(=O)(=O)Cc1ccc(Nc2nccc(-c3c(-c4cccc(NC(=O)c5c(F)cccc5F)c4)nn4ccccc34)n2)cc1 [TCMDC-135669] |  |  |  |  |  | 75 | 99 | 6.824 | 0 | 78 |  |  |  |  | 
0.021 | > 10 |  | 0.09 | CC(c1cccc(Nc2nccc(-c3c(-c4cccc(NC(=O)c5c(F)cccc5F)c4)nn4ccccc34)n2)c1)S(C)(=O)=O (centres unmarked) [TCMDC-135670] |  |  |  |  |  | 99 | 98 | 7.241 | 0 | 76 |  |  |  |  | 
0.04 | > 10 |  | 0.134 | O=C(Nc1c(F)cccc1F)c1cccc(-c2nn3ccccc3c2-c2ccnc(Nc3cccc(-c4cnco4)c3)n2)c1 [TCMDC-135743] |  |  |  |  |  | 94 | 95 | 6.443 | 0 | 96 |  |  |  |  | 
0.02 | > 10 |  | 0.051 | NS(=O)(=O)c1cccc(Nc2nccc(-c3c(-c4cccc(NC(=O)c5c(F)cccc5F)c4)nn4ccccc34)n2)c1 [TCMDC-135780] |  |  |  |  |  | 97 | 98 | 7.1329 | 2 | 81 |  |  |  |  | 
0.02 | > 10 |  | 0.029 | NS(=O)(=O)CCc1cccc(Nc2nccc(-c3c(-c4cccc(NC(=O)c5c(F)cccc5F)c4)nn4ccccc34)n2)c1 [TCMDC-135791] |  |  |  |  |  | 97 | 98 | 7.234 | 3 | 84 |  |  |  |  | 
0.035 | 0.115 |  | 0.075 | CN1CCN(c2ccc(Nc3nccc(-c4c(-c5cccc(NC(=O)c6c(F)cccc6F)c5)nn5ccccc45)n3)cc2)CC1 [TCMDC-135818] |  |  |  |  |  | 98 | 98 | 6.95 | 0 | 86 |  |  |  |  | 
0.022 | > 10 |  | 0.307 | O=C(Nc1cccc(-c2nn3ccccc3c2-c2ccnc(Nc3ccc(-c4cc[nH]n4)cc3)n2)c1)c1c(F)cccc1F [TCMDC-135915] |  |  |  |  |  | 98 | 98 | 6.7232 | 5 | 68 |  |  |  |  | 
0.038 | 5.46 | 0.58 | 0.315 | O=C(Nc1cccc(-c2nn3ccccc3c2-c2ccnc(Nc3ccc(NCCCN4CCOCC4)c(F)c3)n2)c1)c1c(F)cccc1F [TCMDC-135921] |  |  |  |  |  | 97 | 100 | 6.586 | 0 | 86 |  |  |  |  | 
0.375 |  |  |  | Cl.NCc1ccc(Nc2nccc(Nc3ccc(-c4ccccc4)cc3)n2)cc1 [TCMDC-136004] |  |  |  |  |  |  |  |  |  |  | 100 | 6.05 | 98 | 0 | 47
0.04 |  |  |  | Cc1cc(F)ccc1-c1nc(Nc2ccncc2)c2ccn(C)c2n1 [TCMDC-141231] |  |  |  |  |  |  |  |  |  |  | 89 | 6.027 | 8 | 5 | 9
0.242 |  |  |  | Cc1ccc(Nc2nccc(Nc3ccc4c(c3)nc(Nc3cc(C(C)(C)C)on3)n4C)n2)cc1S(C)(=O)=O [TCMDC-141889] |  |  |  |  |  |  |  |  |  |  | 100 | 6.222 | 99 | 0 | 30

SMILES | IC50 [1] [µM] | IC50 (PKG) [µM] | IC50 [3] [µM] | IC50 [5] [µM] | PCT_IHB_3D7 (P. falciparum 3D7 cells; [9]) [%] | pXC50_3D7 (P. falciparum 3D7 cells; [9]) | PCT_INHIB_3D7_PFLDH (3D7 PFLDH [2]) [%] | PCT_INHB_DD2 (DD2 [4]) [%] | PCT_INHIB_HEPG2 (HepG2 cells; [10]) [%] | PCT_INHB_DD2 (DD2 [6]) | PCT_IHB_3D7 (P. falciparum 3D7 cells; [11]) | pXC50_3D7 (P. falciparum 3D7 cells; [11]) | PCT_INHIB_3D7_PFLDH (3D7 PFLDH [7]) | PCT_INHIB_HEPG2 (HepG2 cells; [12]) | PCT_IHB_3D7 (P. falciparum 3D7 cells; P. falciparum 3D7, ref ChEMBL) | pXC50_3D7 (P. falciparum 3D7 cells; P. falciparum 3D7, ref ChEMBL) | PCT_INHB_DD2 (P. falciparum DD2) | PCT_INHIB_3D7_PFLDH (3D7 PFLDH [8]) | PCT_INHIB_HEPG2 (HepG2 cells; HepG2 cells, ref ChEMBL)
CCn1c(-c2nonc2N)nc2c(-c3cccc(NC(=O)Nc4cccc(Cl)c4)c3)ncc(OCCCN)c21.O=C(O)C(F)(F)F [TCMDC-136193] | 0.379 | 0.926 |  | 0.081 | 91 | 6.027 | 0 | 78 | 9 |  |  |  |  |  |  |  |  |  | 
CCn1c(-c2nonc2N)nc2c(-c3cccc(NC(=O)Nc4ccc(C#N)cc4)c3)ncc(OCCCN)c21.O=C(O)C(F)(F)F [TCMDC-136194] | 0.235 | 0.595 |  | 0.084 | 85 | 5.821 | 0 | 80 | 1 |  |  |  |  |  |  |  |  |  | 
CCn1c(-c2nonc2N)nc2c(-c3cccc(NC(=O)Nc4cccc(C#N)c4)c3)ncc(OCCCN)c21.O=C(O)C(F)(F)F [TCMDC-136195] | 0.182 | 0.158 |  | 0.17 | 92 | 6.1747 | 0 | 80 | 37 |  |  |  |  |  |  |  |  |  | 
CCn1c(-c2nonc2N)nc2c(-c3cccc(NC(=O)NC45CC6CC(CC(C6)C4)C5)c3)ncc(OCCCN)c21.O=C(O)C(F)(F)F [TCMDC-136246] | 0.084 | 0.089 |  | 0.158 | 94 |  | 0 | 63 | 100 |  |  |  |  |  |  |  |  |  | 
